Numbers after ± are expanded uncertainties.

A short description of series [1]: refractive index (Na D-line) (dimensionless). Particulars: 293.15 K; 101.33 kPa; Liquid; Standard Abbe refractometry.
Series [2] can be described thus: activity coefficient (dimensionless); of the first substance listed, at infinite dilution; xn = mol fraction of the nth substance listed. Particulars: 101.33 kPa, Liquid, Chromatography, x1 = 0.
The conditions of series [3]: 288.15 K; 101.33 kPa; Liquid; Vibrating tube method.

In general, refractive index refers to the speed of light in vacuum divided by its phase velocity in the sample. On to `OCCO` [1,2-ethanediol], for which the refractive index in series [1] is reported as 1.4319 ± 0.0004.
`C=CCCCCC` [1-heptene] + OCCO: the activity coefficient is 570 ± 26 in series [2] (303.15 K), 503 ± 23 in series [2] (313.15 K) and 452 ± 20 in series [2] (323.15 K).
Regarding `C=CCCCCC` [1-heptene] + OCCOCCO, the results for the activity coefficient in series [2] (304.15 K), in series [2] (313.15 K) and in series [2] (323.15 K) were 84 ± 3.8, 77.8 ± 3.5 and 73.4 ± 3.3, respectively.
In the case of `C=CCCCCCCC` [1-nonene] + OCCO, the activity coefficient in series [2] (303.15 K) was 1610 ± 73; in series [2] (313.15 K), 1300 ± 59; in series [2] (323.15 K), 1170 ± 53.
In the case of `C=CCCCCCCC` [1-nonene] + OCCOCCO, the activity coefficient came out at 188 ± 8 in series [2] (304.15 K), 174 ± 8 in series [2] (313.15 K) and 159 ± 7 in series [2] (323.15 K).
As to `C1CCCCC1` [cyclohexane] + OCCO, the figures for the activity coefficient in series [2] (303.15 K), in series [2] (313.15 K) and in series [2] (323.15 K) were 270 ± 12, 238 ± 11 and 212 ± 10, respectively.
Regarding `C1CCCCC1` [cyclohexane] + OCCOCCO, the activity coefficient in series [2] (304.15 K) is 50.6 ± 2.3; in series [2] (313.15 K), 46.7 ± 2.1; in series [2] (323.15 K), 43.5 ± 1.9.
As for `C1CCCC1` [cyclopentane] + OCCO, the activity coefficient amounted to 163 ± 7 in series [2] (303.15 K), 149 ± 7 in series [2] (313.15 K) and 133 ± 6 in series [2] (323.15 K).
Regarding `C1CCCC1` [cyclopentane] + OCCOCCO, the activity coefficient in series [2] (304.15 K) was 33.8 ± 1.5; in series [2] (313.15 K) it was 31.6 ± 1.4; in series [2] (323.15 K) it was 30.1 ± 1.3.
What is called mass density is the mass of a sample divided by its volume. Consider `OCCOCCO` [diethylene glycol], for which the mass density in series [3] was 1120.3 ± 2 kg/m3. Besides, the refractive index in series [1] was determined as 1.4472 ± 0.0004.
For `CCCCCCC` [heptane] + OCCO, the activity coefficient in series [2] (303.15 K) worked out at 1200 ± 54; in series [2] (313.15 K) it was 1030 ± 47; in series [2] (323.15 K), 860 ± 39.
Take `CCCCCCC` [heptane] + OCCOCCO: the activity coefficient was 174 ± 8 in series [2] (304.15 K), 151 ± 7 in series [2] (313.15 K) and 140 ± 6 in series [2] (323.15 K).
As to `C=CCCCC` [hex-1-ene] + OCCO, the activity coefficient worked out at 330 ± 15 in series [2] (303.15 K), 298 ± 13 in series [2] (313.15 K) and 272 ± 12 in series [2] (323.15 K).
As to `C=CCCCC` [hex-1-ene] + OCCOCCO, the activity coefficient was 56.3 ± 2.5 in series [2] (304.15 K), 52.4 ± 2.3 in series [2] (313.15 K) and 50.2 ± 2.2 in series [2] (323.15 K).
Regarding `CCCCCC` [hexane] + OCCO, the activity coefficient in series [2] (303.15 K) is 716 ± 32; in series [2] (313.15 K) it was 620 ± 28; in series [2] (323.15 K), 543 ± 25.
With `CCCCCC` [hexane] + OCCOCCO, the activity coefficient in series [2] (304.15 K) turned out to be 112 ± 5; in series [2] (313.15 K), 102 ± 5; in series [2] (323.15 K), 94.2 ± 4.2.
Take `CC1CCCCC1` [methylcyclohexane] + OCCO: the results for the activity coefficient in series [2] (303.15 K), in series [2] (313.15 K) and in series [2] (323.15 K) were 473 ± 21, 407 ± 18 and 370 ± 17, respectively.
Regarding `CC1CCCCC1` [methylcyclohexane] + OCCOCCO, the activity coefficient in series [2] (304.15 K) stood at 77.2 ± 5.3; in series [2] (313.15 K), 71.1 ± 4.9; in series [2] (323.15 K), 66 ± 4.5.
With `CCCCCCCCC` [nonane] + OCCO, the activity coefficient in series [2] (303.15 K) is 2960 ± 140; in series [2] (313.15 K) it was 2320 ± 110; in series [2] (323.15 K), 1970 ± 90.
On to `CCCCCCCCC` [nonane] + OCCOCCO, for which the activity coefficient in series [2] (304.15 K) is 371 ± 17; in series [2] (313.15 K) it was 329 ± 15; in series [2] (323.15 K), 295 ± 13.
With `C=CCCCCCC` [oct-1-ene] + OCCO, the activity coefficient in series [2] (303.15 K) came to 962 ± 44; in series [2] (313.15 K), 819 ± 37; in series [2] (323.15 K) it was 736 ± 33.
Turning to `C=CCCCCCC` [oct-1-ene] + OCCOCCO, the activity coefficient came out at 126 ± 6 in series [2] (304.15 K), 116 ± 5 in series [2] (313.15 K) and 108 ± 5 in series [2] (323.15 K).
With `CCCCCCCC` [octane] + OCCO, the activity coefficient stood at 1960 ± 89 in series [2] (303.15 K), 1600 ± 73 in series [2] (313.15 K) and 1340 ± 61 in series [2] (323.15 K).
`CCCCCCCC` [octane] + OCCOCCO: the activity coefficient came out at 249 ± 11 in series [2] (304.15 K), 223 ± 10 in series [2] (313.15 K) and 203 ± 9 in series [2] (323.15 K).
Consider `CCCCC` [pentane] + OCCO, for which the activity coefficient worked out at 436 ± 20 in series [2] (303.15 K), 389 ± 18 in series [2] (313.15 K) and 338 ± 15 in series [2] (323.15 K).
For the molecule `CCCCC` [pentane] + OCCOCCO, the activity coefficient in series [2] (304.15 K) is 74.1 ± 3.3; in series [2] (313.15 K) it was 70.5 ± 3.1; in series [2] (323.15 K), 66.4 ± 3.

Values taken from the NIST ThermoML archive (doi:10.1016/j.jct.2016.10.013).
